Data set [1] can be described thus: in vitro. The following applies: PAMPA. On the technique in general: The PAMPA barrier holds no transporters, so it reflects passive diffusion.
Description: Permeability of the compound at 500 uM incubated for 16 hrs by PAMPA
Data set [2] concerns the target T1, Phosphatidylinositol 4,5-bisphosphate 3-kinase catalytic subunit beta isoform (Homo sapiens, UniProt P42338).
In data set [3] the target is T2, Phosphatidylinositol 4,5-bisphosphate 3-kinase catalytic subunit delta isoform (Homo sapiens, UniProt O00329).
T2 sequence (O00329 whole entry): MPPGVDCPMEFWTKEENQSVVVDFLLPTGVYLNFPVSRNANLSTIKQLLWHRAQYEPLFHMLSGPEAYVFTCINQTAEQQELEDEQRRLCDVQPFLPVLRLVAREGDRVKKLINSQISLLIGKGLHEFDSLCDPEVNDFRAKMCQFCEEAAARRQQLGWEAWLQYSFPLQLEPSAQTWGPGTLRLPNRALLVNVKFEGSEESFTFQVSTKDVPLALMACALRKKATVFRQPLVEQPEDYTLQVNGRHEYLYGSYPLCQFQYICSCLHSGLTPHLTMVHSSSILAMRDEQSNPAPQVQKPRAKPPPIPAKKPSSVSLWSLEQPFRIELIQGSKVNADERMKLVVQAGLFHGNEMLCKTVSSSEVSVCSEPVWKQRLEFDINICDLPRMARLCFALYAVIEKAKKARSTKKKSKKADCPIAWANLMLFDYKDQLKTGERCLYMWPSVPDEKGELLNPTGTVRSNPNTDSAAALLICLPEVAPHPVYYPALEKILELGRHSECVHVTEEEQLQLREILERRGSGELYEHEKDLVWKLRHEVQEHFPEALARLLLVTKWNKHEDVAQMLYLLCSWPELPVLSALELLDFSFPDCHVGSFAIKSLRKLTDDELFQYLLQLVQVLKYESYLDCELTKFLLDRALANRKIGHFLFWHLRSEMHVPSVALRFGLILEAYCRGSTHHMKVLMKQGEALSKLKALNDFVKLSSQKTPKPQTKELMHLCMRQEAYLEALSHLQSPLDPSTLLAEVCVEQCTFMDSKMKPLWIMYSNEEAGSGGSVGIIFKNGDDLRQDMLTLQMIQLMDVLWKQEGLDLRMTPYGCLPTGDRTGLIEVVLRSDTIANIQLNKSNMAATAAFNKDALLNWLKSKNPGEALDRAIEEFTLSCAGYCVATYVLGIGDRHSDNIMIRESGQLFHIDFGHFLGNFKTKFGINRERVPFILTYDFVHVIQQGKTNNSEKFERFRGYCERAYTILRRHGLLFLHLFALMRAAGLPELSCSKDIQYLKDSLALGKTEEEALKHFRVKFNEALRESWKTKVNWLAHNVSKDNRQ
In kind it is cell-based, Fibroblast.
Description: Inhibition of human PI3Kdelta expressed in rat fibroblast cells assessed as reduction in AKT phosphorylation at Ser473 residue incubated for 1 hr by AlphaScreen assay

Data set [4] deals with T3, Phosphatidylinositol 4,5-bisphosphate 3-kinase catalytic subunit alpha isoform (Homo sapiens, UniProt P42336). Type of data set: cell-based, Fibroblast.
Description: Inhibition of human PI3Kalpha expressed in rat fibroblast cells assessed as reduction in AKT phosphorylation at Ser473 residue incubated for 1 hr by AlphaScreen assay
Data set [5] addresses T2, Phosphatidylinositol 4,5-bisphosphate 3-kinase catalytic subunit delta isoform.
For data set [6], the system named is Blood. Nature of the data set: tissue or blood. In kind it is functional, tissue-based. Particulars: Homo sapiens.
Data set [7] concerns the target T3, Phosphatidylinositol 4,5-bisphosphate 3-kinase catalytic subunit alpha isoform.
Data set [8] has as its target T1, Phosphatidylinositol 4,5-bisphosphate 3-kinase catalytic subunit beta isoform. Type of data set: cell-based, Fibroblast.
Description: Inhibition of human PI3Kbeta expressed in rat fibroblast cells assessed as reduction in AKT phosphorylation at Ser473 residue incubated for 1 hr by AlphaScreen assay
Data set [9] in a line: physchem. The following applies: buffer, pH 6.8.
Description: Equilibrium solubility of compound in buffer at pH 6.8 incubated over night under shaking condition by LC-MS/MS analysis
Data set [10] can be described thus: in vivo. The following applies: Sprague-Dawley, rat, iv, 1 mg/kg.
Data set [11] can be described thus: physchem. Particulars: simulated gi fluid.
Description: Solubility of compound in fed state simulated intestinal fluid by shake flask method
A short description of data set [12]: physchem. The following applies: simulated gi fluid, pH 1.
Description: Solubility of compound in stimulated gastric fluid at pH 1 using crystalline form of sample by shake flask method
Data set [13] can be described thus: in vivo. The following applies: Sprague-Dawley, rat, po, 10 mg/kg.
Data set [14] in a line: physchem. Particulars: buffer, pH 6.8. The source holds these as a separate data set.
Description: Solubility of compound at pH 6.8 by shake flask method
Data set [15] in a line: in vivo. The following applies: Sprague-Dawley, rat, iv, 1 mg/kg. The source holds these as a separate data set.
The nature of data set [16]: in vivo. The following applies: Sprague-Dawley, rat, po, 10 mg/kg. The source holds these as a separate data set.
Data set [17] can be described thus: in vivo. The following applies: Sprague-Dawley, rat, po, 10 mg/kg. This is another data set of the same source.
Data set [18] is filed under the species Rattus norvegicus. The following applies: dose 20.0 mg/kg, time 2.0 hrs.
In data set [19] the target is 3',5'-cyclic-AMP phosphodiesterase 4D (Homo sapiens, UniProt Q08499).
Description: Binding affinity to PDE4d (unknown origin)
For data set [20], the species on record is Rattus norvegicus. Particulars: dose 10-20 mg/kg, time 2.0 hrs.
The nature of data set [21]: in vivo. The following applies: Sprague-Dawley, rat, po, 300 mg/kg.
The nature of data set [22]: in vivo. The following applies: Sprague-Dawley, rat, po, 100 mg/kg.
The nature of data set [23]: in vivo. Particulars: Sprague-Dawley, rat, po, 300 mg/kg. This is another data set of the same source.
Data set [24] can be described thus: in vivo. The following applies: Sprague-Dawley, rat, po, 300 mg/kg. This is another data set of the same source.
Data set [25] can be described thus: in vivo. Particulars: Sprague-Dawley, rat, po, 100 mg/kg. This is another data set of the same source.
Data set [26] in a line: in vivo. Particulars: Sprague-Dawley, rat, po, 100 mg/kg. This is another data set of the same source.

The source of these data is ChEMBL document CHEMBL4831512 (J Med Chem, 2021).

Each structure is given as a SMILES string. Values after ≈ are worked out from the molar mass of the structure shown. Active and inactive are the calls of the source.

T1 sequence (P42338 whole entry, canonical isoform): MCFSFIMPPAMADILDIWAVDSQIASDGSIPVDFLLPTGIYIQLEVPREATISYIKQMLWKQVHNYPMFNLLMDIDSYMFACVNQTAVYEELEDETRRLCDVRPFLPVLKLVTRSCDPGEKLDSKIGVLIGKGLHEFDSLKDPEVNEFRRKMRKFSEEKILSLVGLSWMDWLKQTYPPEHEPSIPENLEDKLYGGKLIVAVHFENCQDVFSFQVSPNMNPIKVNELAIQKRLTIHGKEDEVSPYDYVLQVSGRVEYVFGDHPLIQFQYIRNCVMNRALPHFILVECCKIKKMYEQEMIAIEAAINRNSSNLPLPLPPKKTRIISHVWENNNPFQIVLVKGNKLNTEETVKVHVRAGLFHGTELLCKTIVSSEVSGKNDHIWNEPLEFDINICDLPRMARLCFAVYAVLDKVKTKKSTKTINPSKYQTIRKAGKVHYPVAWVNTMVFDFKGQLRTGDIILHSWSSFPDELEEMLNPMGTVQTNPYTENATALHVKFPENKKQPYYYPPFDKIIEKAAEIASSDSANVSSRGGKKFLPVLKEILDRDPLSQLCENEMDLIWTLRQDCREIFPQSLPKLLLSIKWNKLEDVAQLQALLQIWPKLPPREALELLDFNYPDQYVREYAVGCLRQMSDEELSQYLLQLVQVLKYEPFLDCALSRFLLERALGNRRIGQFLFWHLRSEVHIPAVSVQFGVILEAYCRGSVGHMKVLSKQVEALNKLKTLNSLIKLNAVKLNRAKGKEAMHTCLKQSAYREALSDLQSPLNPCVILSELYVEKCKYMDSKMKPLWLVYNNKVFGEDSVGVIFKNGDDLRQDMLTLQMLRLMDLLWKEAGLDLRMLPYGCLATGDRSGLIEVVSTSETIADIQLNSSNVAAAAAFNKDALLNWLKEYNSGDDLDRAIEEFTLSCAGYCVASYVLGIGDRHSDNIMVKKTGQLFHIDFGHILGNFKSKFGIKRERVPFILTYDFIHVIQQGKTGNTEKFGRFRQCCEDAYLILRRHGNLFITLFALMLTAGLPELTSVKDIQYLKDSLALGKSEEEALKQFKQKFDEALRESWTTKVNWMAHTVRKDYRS
T3 sequence (P42336 whole entry, canonical isoform): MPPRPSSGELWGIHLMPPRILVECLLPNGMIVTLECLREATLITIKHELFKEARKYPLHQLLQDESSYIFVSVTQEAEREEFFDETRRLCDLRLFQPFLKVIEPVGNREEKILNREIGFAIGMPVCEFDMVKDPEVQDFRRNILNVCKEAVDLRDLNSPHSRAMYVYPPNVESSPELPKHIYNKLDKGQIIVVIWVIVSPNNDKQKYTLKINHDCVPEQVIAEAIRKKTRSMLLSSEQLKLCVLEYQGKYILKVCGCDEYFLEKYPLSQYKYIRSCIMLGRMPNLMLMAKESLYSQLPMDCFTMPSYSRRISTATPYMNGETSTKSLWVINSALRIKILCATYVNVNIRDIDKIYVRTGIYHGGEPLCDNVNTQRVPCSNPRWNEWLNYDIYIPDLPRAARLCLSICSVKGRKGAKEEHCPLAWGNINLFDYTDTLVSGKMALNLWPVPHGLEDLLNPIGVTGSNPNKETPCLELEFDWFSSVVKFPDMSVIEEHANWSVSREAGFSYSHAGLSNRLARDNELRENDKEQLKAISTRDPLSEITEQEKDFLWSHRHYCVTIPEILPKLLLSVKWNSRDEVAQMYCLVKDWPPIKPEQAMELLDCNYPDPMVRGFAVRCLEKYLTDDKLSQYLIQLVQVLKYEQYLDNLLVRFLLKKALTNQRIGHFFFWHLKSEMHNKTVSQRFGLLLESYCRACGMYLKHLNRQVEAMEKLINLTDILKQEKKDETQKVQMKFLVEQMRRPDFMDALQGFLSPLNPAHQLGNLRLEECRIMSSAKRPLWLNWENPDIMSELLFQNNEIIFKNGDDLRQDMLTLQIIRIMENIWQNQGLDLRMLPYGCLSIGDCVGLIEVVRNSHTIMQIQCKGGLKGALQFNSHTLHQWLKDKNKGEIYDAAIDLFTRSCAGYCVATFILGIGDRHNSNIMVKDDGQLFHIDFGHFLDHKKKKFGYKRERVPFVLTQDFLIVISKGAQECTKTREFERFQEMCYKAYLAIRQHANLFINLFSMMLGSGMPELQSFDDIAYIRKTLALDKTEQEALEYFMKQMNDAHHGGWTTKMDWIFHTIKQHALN
3',5'-cyclic-AMP phosphodiesterase 4D, sequence (Q08499 whole entry): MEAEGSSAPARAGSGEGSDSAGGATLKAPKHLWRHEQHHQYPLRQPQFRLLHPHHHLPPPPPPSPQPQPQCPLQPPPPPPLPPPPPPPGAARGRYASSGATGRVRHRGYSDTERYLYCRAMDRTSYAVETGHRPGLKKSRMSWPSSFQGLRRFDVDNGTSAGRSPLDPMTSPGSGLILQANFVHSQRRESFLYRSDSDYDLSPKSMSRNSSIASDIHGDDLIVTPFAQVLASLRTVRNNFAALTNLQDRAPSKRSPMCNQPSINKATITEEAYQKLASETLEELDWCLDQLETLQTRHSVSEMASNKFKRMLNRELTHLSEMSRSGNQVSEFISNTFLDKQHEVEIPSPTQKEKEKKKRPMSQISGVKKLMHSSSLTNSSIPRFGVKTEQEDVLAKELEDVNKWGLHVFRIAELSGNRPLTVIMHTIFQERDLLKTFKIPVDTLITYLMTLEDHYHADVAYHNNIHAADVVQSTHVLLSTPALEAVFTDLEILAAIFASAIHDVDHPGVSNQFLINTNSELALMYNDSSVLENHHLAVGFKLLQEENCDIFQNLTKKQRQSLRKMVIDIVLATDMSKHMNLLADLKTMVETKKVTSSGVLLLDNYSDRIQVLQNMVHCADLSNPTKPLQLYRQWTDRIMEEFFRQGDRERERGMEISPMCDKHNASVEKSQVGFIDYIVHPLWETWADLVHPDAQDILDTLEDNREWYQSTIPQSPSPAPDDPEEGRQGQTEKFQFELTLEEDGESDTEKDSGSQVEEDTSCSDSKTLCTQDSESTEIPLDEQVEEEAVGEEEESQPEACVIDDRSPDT

`Cc1ncc(-c2nc(-c3cc(S(=O)(=O)NCCC(C)(C)O)ccc3C)cnc2N)s1` showed a Fa at 16 h, 500 µM in data set [1] of 35%.
For `CCn1nnc(CCNC(=O)Nc2nc(C)c(-c3ccc(S(C)(=O)=O)c(F)c3)s2)n1`, the IC50 (usually the concentration that inhibits the measured activity by half) was 360 nM in [2]; 4030 nM in data set [3]; > 10000 nM in data set [4]; 960 nM in [5]; 7050 nM in data set [6]; 3030 nM in data set [7]. In data set [8], inhibition was half-maximal at 2360 nM (IC50).
Turning to `Cc1ccc(S(=O)(=O)NCC(C)(C)O)cc1-c1cnc(N)c(-n2cncn2)c1`, the Fa at 16 h, 500 µM in data set [1] was < 27%.
With `Cc1ccc(S(=O)(=O)NCC(C)(C)O)cc1-c1cnc(N)c(-c2cnn(C)n2)c1`, in [9], the thermodynamic solubility (commonly solubility found after equilibrating the solid with the medium) is 290 µg/mL (≈ 696 µM). For the same molecule, inhibition in [6] was half-maximal at 931 nM (IC50). Besides, the Fa at 16 h, 500 µM in [1] stood at 52%.
Regarding `Cc1ccc(S(=O)(=O)N[C@H]2CC[C@H](O)CC2)cc1-c1cnc(N)c(C(=O)C2CC2)n1`, the half-life (usually the time needed for the level to fall by half in the phase considered) in data set [10] was 4.6 h.
For the molecule `Cc1ccc(S(=O)(=O)NCC(C)(C)O)cc1-c1cnc(N)c(-c2cn(C)nc2C)n1`, the Fa at 16 h, 500 µM in data set [1] stood at 24%.
The same measure, in the same setting: then `Cc1ccc(S(=O)(=O)NCC(C)(C)O)cc1-c1cnc(N)c(-c2nn(C)nc2C)n1`, with 81%; and `Cc1nnc(-c2cc(-c3cc(S(=O)(=O)NCC(C)(C)O)ccc3C)cnc2N)o1`, with 27%; and `Cc1ccc(S(=O)(=O)NCC(C)(C)O)cc1-c1cnc(N)c(-c2cnn(C)n2)n1`, with 60%.
As for `Cc1ncc(-c2nc(-c3cc(S(=O)(=O)NCCCO)ccc3C)cnc2N)s1`, in [1], the Fa at 16 h, 500 µM came out at 27%.
On the same count and under the same terms, under `Cc1ccc(S(=O)(=O)NCC(C)(C)O)cc1-c1cnc(N)c(-n2cncn2)n1` stands 27%; under `Cc1ccn(-c2nc(-c3cc(S(=O)(=O)NCC(C)(C)O)ccc3C)cnc2N)n1`, 96%.
As for `Cc1ncc(-c2cc(-c3cc(S(=O)(=O)NCC(C)(C)O)ccc3C)cnc2N)s1`, the thermodynamic solubility in data set [9] was determined as 52 µg/mL (≈ 120 µM). Moreover, the IC50 in [6] is 1810 nM. In data set [1], this molecule displayed a Fa at 16 h, 500 µM of 43%.
In data set [1], `Cc1ncc(-c2nc(-c3cc(S(=O)(=O)NC4CCC(F)(F)CC4)ccc3C)cnc2N)s1` showed a Fa at 16 h, 500 µM of 96%.
Same read-out and setting: then `Cc1ncc(-c2nc(-c3cc(S(=O)(=O)N[C@H]4CC[C@H](O)CC4)ccc3C)cnc2N)s1`, with < 21%.
Consider `Cc1ccc(S(=O)(=O)NCC(C)(C)O)cc1-c1cnc(N)c(-c2cnn(C)c2C)c1`, for which, in [1], the Fa at 16 h, 500 µM is < 35%.
For `Cc1cnn(-c2cc(-c3cc(S(=O)(=O)NCC(C)(C)O)ccc3C)cnc2N)c1`, the solubility (thermodynamic) in data set [9] amounted to 30 µg/mL (≈ 72.2 µM). This molecule also had a Fa at 16 h, 500 µM in data set [1] of 68%.
For `Cc1ncc(-c2nc(-c3cc(S(=O)(=O)NCCO)ccc3C)cnc2N)s1`, the Fa at 16 h, 500 µM in [1] was found to be 35%.
As for `Cc1noc(-c2cc(-c3cc(S(=O)(=O)NCC(C)(C)O)ccc3C)cnc2N)n1`, the thermodynamic solubility in [11] is 92 µg/mL (≈ 220 µM); in [9], 160 µg/mL (≈ 383 µM); in [12], 1020 µg/mL (≈ 2460 µM); in data set [14] it was 16 µg/mL (≈ 38.3 µM). Also, in data set [13], the AUC(0-t) (commonly the area under the concentration-time curve up to a stated or last time point) at 24 h came to 17.1 µM·h. The same molecule returned a Fa at 16 h, 500 µM in [1] of 81%. Also, in data set [15], the clearance (usually a measure of how efficiently the substance is removed, as volume per time) was 15 mL/min/kg. In [16], the bioavailability is 66%. Besides, the peak concentration (Cmax) (in general, the maximum level reached in the sampled fluid or tissue) in data set [17] was 3.29 µM.
On to `Cc1ncc(-c2nc(-c3cc(S(=O)(=O)NCC(C)(C)O)ccc3C)cnc2N)s1`, for which, in data set [1], the Fa at 16 h, 500 µM worked out at 43%.
On to `Cc1ncc(-c2cc(-c3cc(S(=O)(=O)NCC(C)(C)O)ccc3C)cnc2N)o1`, for which the inhibition result in [18] is “Active”. Besides, the figures for the IC50 in [19] and in [6] were 1100 nM and 856 nM, respectively. The solubility (thermodynamic) was 200 µg/mL (≈ 480 µM) in data set [11], 270 µg/mL (≈ 648 µM) in data set [9], 532 µg/mL (≈ 1280 µM) in data set [12] and 4 µg/mL (≈ 9.6 µM) in data set [14]. For the same molecule, the inhibition entry in data set [20] was “Dose-Dependent Effect”. Also, the results for the bioavailability in data set [21], in data set [26] and in data set [16] were 122%, 94% and 72%, respectively. Besides, the Cmax came to 12.2 µM in data set [22], 25.2 µM in data set [23] and 1.53 µM in data set [17]. Further, the AUC(0-t) at 24 h was 9.75 µM·h in [13], 397 µM·h in data set [24] and 128 µM·h in data set [25]. Also, the Fa at 16 h, 500 µM in data set [1] is < 27%. In data set [15], this molecule yielded a clearance of 30 mL/min/kg.
`Cc1cc(-c2nc(-c3cc(S(=O)(=O)NCC(C)(C)O)ccc3C)cnc2N)on1` came in with a Fa at 16 h, 500 µM in data set [1] of 43%.
